{"source": "patent US20070249519A1", "about": "“METHODS FOR THE UPREGULATION OF GLUT4 VIA MODULATION OF PPAR DELTA IN ADIPOSE TISSUE AND FOR THE TREATMENT OF DISEASE” (KALYPSYS, INC., priority 2006, published 2007)", "key": {"[1]": {"test": "Compound level in adipose tissue by LC/Mass Spec, DIO model in mice", "type": "in vivo, C57B1/6j mice", "details": "8 weeks of treatment, 3 or 9 mg/kg/d Compound 1 vs 3 mg/kg/day Compound 2", "experimental": "(§1) C57B1/6j mice (n=5-6 for each group) were fed ad libitum with either the HFD (58% fat) or NC (5%) diet for 4 weeks prior to start of experiments, and throughout the course of each experiment (Days −27 to Day 60). Starting on Day 1, mice were dosed BID with either 3 mg/kg Compound 1+vehicle, 9 mg/kg Compound 1+vehicle, 3 mg/kg Compound 2+vehicle, or vehicle alone, for the entire period of the study (day 0-60). Plasma Insulin, and glucose levels under fasting and postprandial (PP) conditions were measured using the Ultrasensitive Mouse Insulin ELISA kit (Mercodia) and glucometer (Accu-Check Compact, Roche) respectively. Appropriate dilutions were made in each case to ensure that the samples remained in the linear range of the standard curve. Animals were sacrificed and levels of Compound 1 and Compound 2 in adipose and muscle tissue were assayed using LC/Mass Spec. Tissues were collected at sacrifice at 3-4 hours post dosing with compound 1 or compound 2 in a fed state and GLUT4 mRNA expression was assessed using GLUT4 specific probes and branched DNA (bDNA) analyses (Epicenter Biotechnologies)."}, "[2]": {"test_system": "GLUT4 mRNA expression", "test": "GLUT4 mRNA expression in adipose tissue, DIO model in mice", "type": "in vivo, C57B1/6j mice", "details": "3 or 9 mg/kg", "excerpt": "(§2) Metabolic syndrome in humans is characterized by abdominal obesity, high triglycerides, impaired fasting glucose and hyperinsulinemia. In the DIO model, mice are fed high fat diet (HFD, Research diet D12492, Research Diet, N.J.) diet (58% lard) for the entire period of the study. Compared to normal chow (NC, Harlan-Tekland #8604, WI) fed animals the HF fed mice develop several features of metabolic syndrome such as hypertriglyceridemia, hyperinsulinemia and mild hyperglycemia, as early as two weeks, on this diet. […] Additionally, GLUT4 expression is down regulated in HF-fed C57B1/6j mice after 4 weeks. […]\n(§3) C57B1/6j mice (n=5-6 for each group) were fed ad libitum with either the HFD (58% fat) or NC (5%) diet for 4 weeks prior to start of experiments, and throughout the course of each experiment (Days −27 to Day 60). […] Plasma Insulin, and glucose levels under fasting and postprandial (PP) conditions were measured using the Ultrasensitive Mouse Insulin ELISA kit (Mercodia) and glucometer (Accu-Check Compact, Roche) respectively. […] Tissues were collected at sacrifice at 3-4 hours post dosing with compound 1 or compound 2 in a fed state and GLUT4 mRNA expression was assessed using GLUT4 specific probes and branched DNA (bDNA) analyses (Epicenter Biotechnologies)."}, "[3]": {"test": "Glucose tolerance testing (GTT), DIO model in mice", "type": "in vivo, C57B1/6j mice", "excerpt": "Metabolic syndrome in humans is characterized by abdominal obesity, high triglycerides, impaired fasting glucose and hyperinsulinemia. In the DIO model, mice are fed high fat diet (HFD, Research diet D12492, Research Diet, N.J.) diet (58% lard) for the entire period of the study. Compared to normal chow (NC, Harlan-Tekland #8604, WI) fed animals the HF fed mice develop several features of metabolic syndrome such as hypertriglyceridemia, hyperinsulinemia and mild hyperglycemia, as early as two weeks, on this diet. […] Additionally, GLUT4 expression is down regulated in HF-fed C57B1/6j mice after 4 weeks. This model was used to evaluate the pharmacological effects of a Compound 1 and Compound 2 in mitigating several features of HFD induced metabolic syndrome in rodents.\nas §1"}, "[4]": {"target": "T1, PPAR gamma (Homo sapiens, UniProt P37231)", "T1 construct": "expressed in transfected cells; host or cells: CV-1 cells", "T1 sequence (P37231 238-503 limits assumed)": "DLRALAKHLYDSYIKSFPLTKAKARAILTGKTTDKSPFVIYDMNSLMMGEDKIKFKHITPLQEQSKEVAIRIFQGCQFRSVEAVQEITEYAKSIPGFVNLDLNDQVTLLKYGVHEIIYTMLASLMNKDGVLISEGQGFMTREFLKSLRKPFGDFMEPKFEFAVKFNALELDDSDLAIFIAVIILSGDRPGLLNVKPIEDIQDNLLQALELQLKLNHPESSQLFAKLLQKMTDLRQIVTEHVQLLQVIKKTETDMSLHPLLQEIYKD", "details": "GAL4 chimera, CV-1 cells, luciferase; cited from earlier work"}, "[5]": {"test_system": "GLUT4 mRNA expression", "test": "GLUT4 mRNA expression in muscle tissue, DIO model in mice", "type": "in vivo, C57B1/6j mice", "details": "14 weeks of treatment, 3 or 9 mg/kg, NC or HFD, vs vehicle", "excerpt": "as §2, §3"}, "[6]": {"target": "T2, PPAR alpha (Homo sapiens, UniProt Q07869)", "T2 construct": "expressed in transfected cells; host or cells: CV-1 cells", "T2 sequence (Q07869 239-466 limits assumed)": "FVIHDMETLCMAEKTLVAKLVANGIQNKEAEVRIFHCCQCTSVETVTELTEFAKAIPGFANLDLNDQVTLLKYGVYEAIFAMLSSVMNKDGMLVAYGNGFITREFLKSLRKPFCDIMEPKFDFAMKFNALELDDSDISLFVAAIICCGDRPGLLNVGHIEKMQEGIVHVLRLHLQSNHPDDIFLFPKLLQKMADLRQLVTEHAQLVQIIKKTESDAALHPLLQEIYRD", "details": "GAL4 chimera, CV-1 cells, luciferase; cited from earlier work"}, "[7]": {"target": "T3, PPAR delta (Homo sapiens, UniProt Q03181)", "T3 construct": "expressed in transfected cells; host or cells: CV-1 cells", "T3 sequence (Q03181 211-439 limits assumed)": "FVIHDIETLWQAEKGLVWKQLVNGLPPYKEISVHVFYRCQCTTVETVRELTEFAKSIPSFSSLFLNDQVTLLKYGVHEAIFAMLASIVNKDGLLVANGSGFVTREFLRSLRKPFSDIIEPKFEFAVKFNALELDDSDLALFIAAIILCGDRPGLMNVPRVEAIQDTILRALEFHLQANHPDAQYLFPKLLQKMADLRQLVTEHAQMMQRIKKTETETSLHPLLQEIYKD", "details": "GAL4 chimera, CV-1 cells, luciferase; cited from earlier work"}, "[8]": {"test": "Insulin tolerance testing (ITT), DIO model in mice", "type": "in vivo, C57B1/6j mice", "details": "NC and HFD cohorts, 3 and 9 mg/kg", "excerpt": "as §2, §3"}, "[9]": {"test_system": "GLUT4", "details": "in vivo; cited from earlier work"}, "[10]": {"details": "in vivo; cited from earlier work"}, "[11]": {"test_system": "GLUT4 translocation", "details": "ZDF ob/ob and DIO C57BL/6 mice; cited from earlier work"}}, "note": "pEC50: −log10 of the molar value."}
{"smiles": "C[C@@H]1CN(c2ccc(OC(F)(F)F)cc2)C[C@H](C)N1S(=O)(=O)c1cccc2c1CC(C(=O)O)C2", "note": "(mixture of isomers) [Compound 1, 4-[cis-2,6-Dimethyl-4-(4-trifluoromethoxy-phenyl)-piperazine-1-sulfonyl]-indan-2-carboxylic acid]", "values": [{"measurement": "uptake (concentration) in murine adipose tissue (FIG. 4)", "setting": "[1]", "value": "preferentially uptaken over Compound 2"}, {"measurement": "GLUT4 mRNA expression in murine adipose tissue (FIG. 3)", "setting": "[2]; 8 weeks of treatment, HFD cohort", "value": "upregulated"}, {"measurement": "GLUT4 mRNA expression in murine adipose tissue (FIG. 2)", "setting": "[2]; 14 days of treatment, HFD fed mice", "value": "normalized expression of GLUT-4"}, {"measurement": "plasma glucose during GTT, effect by dose (FIG. 6)", "setting": "[3]; HFD cohort, 3 and 9 mg/kg", "value": "an effect was seen at both doses"}, {"measurement": "plasma glucose during GTT (FIGS. 5 and 6)", "setting": "[3]; NC and HFD cohorts", "value": "increased glucose disposal"}, {"measurement": "plasma insulin during GTT (FIGS. 7 and 8)", "setting": "[3]; NC and HFD cohorts", "value": "decreased insulin levels"}, {"measurement": "pEC50", "setting": "[4]", "value": "< 4.00"}, {"measurement": "GLUT4 mRNA expression in murine muscle tissue (FIG. 1)", "setting": "[5]", "value": "no significant increase"}, {"measurement": "pEC50", "setting": "[6]", "value": "< 4.00"}, {"measurement": "pEC50", "setting": "[7]", "value": "> 5.30"}, {"measurement": "plasma glucose during ITT (FIGS. 9 and 10)", "setting": "[8]", "value": "attenuated plasma glucose output"}]}
{"smiles": "C[C@@H]1CN(Cc2ccc(OC(F)(F)F)cc2)C[C@H](C)N1S(=O)(=O)c1cccc2c1CC(C(=O)O)C2", "note": "(mixture of isomers) [Compound 3, 4-[cis-2,6-Dimethyl-4-(4-trifluoromethoxy-benzyl)-piperazine-1-sulfonyl]-indan-2-carboxylic acid]", "values": [{"measurement": "pEC50", "setting": "[4]", "value": "4.00 to 5.30"}, {"measurement": "pEC50", "setting": "[6]", "value": "4.00 to 5.30"}, {"measurement": "pEC50", "setting": "[7]", "value": "> 5.30"}]}
{"smiles": "C[C@@H]1CN(c2ccc(OC(F)(F)F)cc2)C[C@H](C)N1S(=O)(=O)c1cccc2c1C[C@@H](C(=O)O)C2", "note": "[Compound 1A, (S)-4-[cis-2,6-Dimethyl-4-(4-trifluoromethoxy-phenyl)-piperazine-1-sulfonyl]-indan-2-carboxylic acid]", "values": [{"measurement": "pEC50", "setting": "[4]", "value": "< 4.00"}, {"measurement": "pEC50", "setting": "[6]", "value": "< 4.00"}, {"measurement": "pEC50", "setting": "[7]", "value": "> 5.30"}]}
{"smiles": "Cc1cc(SCc2sc(-c3ccc(C(F)(F)F)cc3)nc2C)ccc1OCC(=O)O", "note": "[Compound 2, {2-Methyl-4-[4-methyl-2-(4-trifluoromethyl-phenyl)-thiazol-5-ylmethylsulfanyl]-phenoxy}-acetic acid]", "values": [{"measurement": "expression of GLUT4 in rat skeletal muscle", "setting": "[9]", "value": "increased expression of GLUT4"}, {"measurement": "tissue partitioning", "setting": "[10]", "value": "preferentially partitions into muscular tissue"}]}
{"smiles": "C[C@@H]1CN(Cc2ccc(OC(F)(F)F)cc2)C[C@H](C)N1S(=O)(=O)c1cccc2c1C[C@@H](C(=O)O)C2", "note": "[Compound 3A, (S)-4-[cis-2,6-Dimethyl-4-(4-trifluoromethoxy-benzyl)-piperazine-1-sulfonyl]-indan-2-carboxylic acid]", "values": [{"measurement": "pEC50", "setting": "[4]", "value": "4.00 to 5.30"}, {"measurement": "pEC50", "setting": "[6]", "value": "< 4.00"}, {"measurement": "pEC50", "setting": "[7]", "value": "> 5.30"}]}
{"smiles": "CC(=O)NCCOC(=O)[C@H](Oc1cccc(C(F)(F)F)c1)c1ccc(Cl)cc1", "note": "[MBX-102]", "values": [{"measurement": "insulin sensitivity and GLUT4 translocation in adipose and muscular tissue", "setting": "[11]", "value": "enhanced insulin sensitivity and GLUT4 translocation"}]}
